“And” between values parts separate entries of the source, which are not always exact repeats. Identical values can stand only once.
Test system: SARS-CoV-2 B.1 (D614G) wild-type
Format: cell-based

O=c1nc(NO)ccn1[C@@H]1O[C@H](CO)[C@@H](O)[C@H]1O [EIDD-1931]
Increase in antiviral activity by the P-gp inhibitor: negligible | IC50 (read-out: IC50 WT Mean ± SD): 1100 nM and 1500 nM
